{"source": "patent US6822097B1", "about": "“Compounds and methods of uses” (Amgen, Inc., priority 2002, dated 2004)", "note": "Where a name gives a salt, the structure may show the parent alone.", "data": [{"values": [{"compound": "O=C(Nc1nc(-c2cc3ccccc3[nH]c2=O)cs1)c1ccccc1", "note": "(as salt: HCl) [Example 71, N-[4-(2-Oxo(3-hydroquinolyl))(1,3-thiazol-2-yl)]benzamide]", "melting point": "309 to 311 °C (dec.)"}, {"compound": "Nc1nc(-c2cc3ccccc3[nH]c2=O)cs1", "note": "(as salt: hydrobromid) [Example 66, 3-(2-Amino-1,3-thiazol-4-yl)hydroquinolin-2-one]", "melting point": "> 300 °C"}, {"compound": "O=c1[nH]c2ccccc2cc1-c1csc(Nc2ccccn2)n1", "note": "(as salt: hydrobromid) [Example 67, 3-[2-(2-pyridylamino)-1,3-thiazol-4-yl]hydroquinolin-2-one]", "melting point": "307 to 312 °C (dec.)"}, {"compound": "O=c1[nH]c2ccccc2cc1-c1csc(Nc2cccnc2)n1", "note": "(as salt: hydrobromid) [Example 68, 3-[2-(3-Pyridylamino)-1,3-thiazol-4-yl]hydroquinolin-2-one]", "melting point": "> 300 °C"}, {"compound": "O=c1[nH]c2ccccc2cc1-c1csc(Nc2ccncc2)n1", "note": "(as salt: hydrobromid) [Example 69, 3-[2-(4-Pyridylamino)-1,3-thiazol-4-yl]hydroquinolin-2-one]", "melting point": "> 300 °C"}, {"compound": "CNc1nc(-c2cc3ccccc3[nH]c2=O)cs1", "note": "(as salt: hydrobromid) [Example 75, 3-[2-(Methylamino)-1,3-thiazol-4-yl]hydroquinolin-2-one hydrobromide]", "melting point": "292 to 293 °C"}, {"compound": "O=c1[nH]c2ccccc2cc1-c1csc(NCc2ccco2)n1", "note": "(as salt: hydrobromid) [Example 79, 3-{2-[(2-Furylmethyl)amino]-1,3-thiazol-4-yl}hydroquinolin-2-one hydrobromide]", "melting point": "221 to 224 °C (dec.)"}, {"compound": "O=c1[nH]c2ccccc2cc1-c1csc(NCCN2CCOCC2)n1", "note": "(as salt: hydrobromid) [Example 80, 3-{2-[(2-Morpholin-4-ylethyl)amino]-1,3-thiazol-4-yl}hydroquinolin-2-one hydrobromide]", "melting point": "237 to 239 °C"}, {"compound": "Nc1c(-c2csc(-c3ccncc3)n2)c(=O)[nH]c2ccccc12", "note": "(as salt: salt) [Example 6, 3-[2-(4-Pyridyl)-4-thiazolyl]-4-amino-2(1H)-quinolinone]", "melting point": "> 250 °C"}, {"compound": "O=c1[nH]c2ccccc2cc1-c1nc(-c2ccncc2)cs1", "note": "(as salt: salt) [Example 111, 3-(4-Pyridin-4-yl-thiazol-2-yl)-1H-quinolin-2-one]", "melting point": "> 300 °C"}, {"compound": "O=c1[nH]c2ccccc2cc1-c1csc(-c2ccncc2)n1", "note": "[Example 1, 3-[2-(4-Pyridyl)-4-thiazolyl]-2(1H)-quinolinone]", "melting point": "241 to 243 °C"}, {"compound": "O=c1[nH]c2ccccc2cc1-c1csc(-c2cccnc2)n1", "note": "[Example 2, 3-[2-(3-Pyridyl)-4-thiazolyl]-2(1H)-quinolinone]", "melting point": "230 to 232 °C"}, {"compound": "Cc1c(-c2csc(-c3ccncc3)n2)c(=O)[nH]c2ccccc12", "note": "[Example 3, 3-[2-(4-Pyridyl)-4-thiazolyl]-4-methyl-2(1H)-quinolinone]", "melting point": "> 250 °C"}, {"compound": "O=c1[nH]c2ccccc2c(-c2ccccc2)c1-c1csc(-c2ccncc2)n1", "note": "[Example 4, 3-[2-(4-Pyridyl)-4-thiazolyl]-4-phenyl-2(1H)-quinolinone]", "melting point": "> 250 °C"}, {"compound": "O=c1[nH]c2ccccc2c(O)c1-c1csc(-c2ccncc2)n1", "note": "[Example 5, 3-[2-(4-pyridyl)-4-thiazolyl]-4-hydroxy-2(1H)-quinolinone]", "melting point": "> 250 °C"}, {"compound": "Nc1c(-c2csc(-c3ccncc3)n2)c(=O)[nH]c2ccc(N3CCCCC3)cc12", "note": "[Example 7, 3-[2-(4-Pyridyl)-4-thiazolyl]-4-amino-6-(1-piperidinyl)-2(1H) -quinolinone]", "melting point": "199 to 202 °C"}, {"compound": "COC(=O)c1cccc2[nH]c(=O)c(-c3csc(-c4ccncc4)n3)cc12", "note": "[Example 8, 1,2-Dihydro-2-oxo-3-[2-(4-pyridyl)-4-thiazolyl]-5-quinolinecarboxylic acid methyl ester]", "melting point": "> 250 °C"}, {"compound": "O=c1[nH]c2cc3c(cc2cc1-c1csc(-c2cccnc2)n1)OCO3", "note": "[Example 9, 3-[2-(3-Pyridyl)-4-thiazolyl]-6,7-(methylenedioxyl)-2(1H)-quinolinone]", "melting point": "> 220 °C"}, {"compound": "O=C(O)c1cccc2[nH]c(=O)c(-c3csc(-c4ccncc4)n3)cc12", "note": "[Example 10, 1,2-Dihydro-2-oxo-3-[2-(4-pyridyl)-4-thiazolyl]-5-quinolinecarboxylic acid]", "melting point": "> 250 °C"}, {"compound": "CCN(CC)C(=O)c1cccc2[nH]c(=O)c(-c3csc(-c4ccncc4)n3)cc12", "note": "[Example 11, N,N-Diethyl-1,2-dihydro-2-oxo-3-[2-(4-pyridyl)-4-thiazolyl]-5-quinolinecarboxamide]", "melting point": "210 °C (dec.)"}, {"compound": "O=c1[nH]c2cc3c(cc2cc1-c1csc(-c2ccncc2)n1)OCO3", "note": "[Example 18, 7-(2-(4-Pyridinyl)-1,3-thiazol-4-yl)[1,3]dioxolo[4,5-g]quinolin-6(5H)-one]", "melting point": "167 to 169 °C"}, {"compound": "COc1cc2[nH]c(=O)c(-c3csc(-c4ccncc4)n3)c(N)c2cc1OC", "note": "[Example 19, 3-[2-(4-pyridyl)-4-thiazolyl]-4-amino-6,7-dimethoxy-2(1H)-quinolinone]", "melting point": "> 250 °C"}, {"compound": "COc1cc2[nH]c(=O)c(-c3csc(-c4cccnc4)n3)c(N)c2cc1OC", "note": "[Example 20, 3-[2-(3-Pyridyl)-4-thiazolyl]-4-amino-6,7-dimethoxy-2(1H)-quinolinone]", "melting point": "> 250 °C"}, {"compound": "Nc1c(-c2csc(-c3ccncc3)n2)c(=O)[nH]c2ccc(Cl)cc12", "note": "[Example 21, 3-[2-(4-Pyridyl)-4-thiazolyl]-4-amino-6-chloro-2(1H)-quinolinone]", "melting point": "> 220 °C"}, {"compound": "CN1CCN(c2ccc3[nH]c(=O)c(-c4csc(-c5ccncc5)n4)c(N)c3c2)CC1", "note": "[Example 22, 3-[2-(4-Pyridyl)-4-thiazolyl]-4-amino-6-(4-methyl-1-piperazinyl)-2(1H)-quinolinone]", "melting point": "> 220 °C"}, {"compound": "Nc1nc(-c2c(-c3ccccc3)c3ccccc3[nH]c2=O)cs1", "note": "[Example 23, 3-(2-Amino-4-thiazolyl)-4-phenyl-2(1H)-quinolinone]", "melting point": "> 220 °C"}, {"compound": "O=c1[nH]c2ccccc2cc1-c1csc(NS(=O)(=O)c2ccccc2)n1", "note": "[Example 70, 3-{2-[(Phenylsulfonyl)amino]-1,3-thiazol-4-yl}hydroquinolin-2-one]", "melting point": "> 300 °C"}, {"compound": "O=C(Cc1ccccc1)Nc1nc(-c2cc3ccccc3[nH]c2=O)cs1", "note": "[Example 72, N-[4-(2-Oxo(3-hydroquinolyl))(1,3-thiazol-2-yl)]-2-phenylacetamide]", "melting point": "272 to 278 °C"}, {"compound": "COc1ccc(CC(=O)Nc2nc(-c3cc4ccccc4[nH]c3=O)cs2)c(OC)c1", "note": "[Example 73, 2-(2,4-Dimethoxyphenyl)-N-[4-(2-oxo(3-hydroquinolyl))(1,3-thiazol-2-yl)]acetamide]", "melting point": "295 to 300 °C (dec.)"}, {"compound": "O=c1[nH]c2ccccc2cc1-c1csc(NS(=O)(=O)c2ccc(OC(F)(F)F)cc2)n1", "note": "[Example 74, 3-[2-({[4-(Trifluoromethoxy)phenyl]sulfonyl}amino)-1,3-thiazol-4-yl]hydroquinolin-2-one]", "melting point": "> 300 °C"}, {"compound": "CN(C(=O)c1ccccc1)c1nc(-c2cc3ccccc3[nH]c2=O)cs1", "note": "[Example 76, N-Methyl-N-[4-(2-oxo(3-hydroquinolyl))(1,3-thiazol-2-yl)]benzamide]", "melting point": "> 300 °C"}, {"compound": "O=c1[nH]c2ccccc2cc1-c1csc(Nc2ccccc2F)n1", "note": "[Example 78, 3-{2-[(2-Fluorophenyl)amino]-1,3-thiazol-4-yl}hydroquinolin-2-one]", "melting point": "277 to 278 °C (dec.)"}, {"compound": "CS(=O)(=O)c1ccc(-c2csc(-c3cc4ccccc4[nH]c3=O)n2)cc1", "note": "[Example 112, 3-{4-[4-(Methylsulfonyl)phenyl]-1,3-thiazol-2-yl}hydroquinolin-2-one]", "melting point": "> 300 °C"}, {"compound": "N#Cc1ccc(-c2csc(-c3cc4ccccc4[nH]c3=O)n2)cc1", "note": "[Example 113, 4-[2-(2-Oxo-3-hydroquinolyl)-1,3-thiazol-4-yl]benzenecarbonitrile]", "melting point": "> 300 °C"}, {"compound": "O=c1[nH]c2ccccc2cc1-c1nc(-c2cccc([N+](=O)[O-])c2)cs1", "note": "[Example 114, 3-[4-(3-Nitrophenyl)-1,3-thiazol-2-yl]hydroquinolin-2-one]", "melting point": "> 300 °C"}, {"compound": "COc1cccc(-c2csc(-c3cc4ccccc4[nH]c3=O)n2)c1", "note": "[Example 115, 3-[4-(3-Methoxyphenyl)-1,3-thiazol-2-yl]hydroquinolin-2-one]", "melting point": "279 to 282 °C"}, {"compound": "Cc1onc(-c2ccccc2)c1-c1csc(-c2cc3ccccc3[nH]c2=O)n1", "note": "[Example 116, 3-[4-(5-Methyl-3-phenylisoxazol-4-yl)-1,3-thiazol-2-yl]hydroquinolin-2-one]", "melting point": "242 to 244 °C"}, {"compound": "O=c1[nH]c2ccccc2cc1-c1csc(N(Cc2ccccc2)S(=O)(=O)c2ccccc2)n1", "note": "[Example 8728, N-Benzyl-N-[4-(2-oxo-1,2-dihydro-quinolin-3-yl)-thiazol-2-yl]-benzenesulfonamide]", "melting point": "228 to 232 °C"}, {"compound": "C=CCN(c1nc(-c2cc3ccccc3[nH]c2=O)cs1)S(=O)(=O)c1ccccc1", "note": "[Example 8729, N-Allyl-N-[4-(2-oxo-1,2-dihydro-quinolin-3-yl)-thiazol-2-yl]-benzenesulfonamide]", "melting point": "214 to 216 °C"}, {"compound": "CN(c1nc(-c2cc3ccccc3[nH]c2=O)cs1)S(=O)(=O)c1ccc(Br)cc1", "note": "[Example 8730, 4-Bromo-N-methyl-N-[4-(2-oxo-1,2-dihydro-quinolin-3-yl)-thiazol-2-yl]-benzenesulfonamide]", "melting point": "280 to 282 °C"}, {"compound": "CN(c1nc(-c2cc3ccccc3[nH]c2=O)cs1)S(=O)(=O)c1cccc(F)c1", "note": "[Example 8731, 3-Fluoro-N-methyl-N-[4-(2-oxo-1,2-dihydro-quinolin-3-yl)-thiazol-2-yl]-benzenesulfonamide]", "melting point": "247 to 249 °C"}, {"compound": "CN(c1nc(-c2cc3ccccc3[nH]c2=O)cs1)S(=O)(=O)c1cn(C)cn1", "note": "[Example 8732, N,1-Dimethyl-N-(4-(2-oxo-1,2-dihydro-3-quinolinyl)-1,3-thiazol-2-yl)-1H-imidazole-4-sulfonamide]", "melting point": "> 300 °C"}, {"compound": "COC(=O)c1ccc2cc(-c3csc(N(C)S(=O)(=O)c4ccccc4)n3)c(=O)[nH]c2c1", "note": "[Example 8763]", "melting point": "> 300 °C"}]}]}
